Read-outs that look alike come from different tables or passages of the source.
How the values were obtained:
[1] = molecular target: P. falciparum apicoplast DNA polymerase (Pf-apPOL) (Plasmodium falciparum, UniProt Q8ILY1); test: Fluorescence-based high-throughput DNA polymerase assay (molecular beacon), primary screen and dose-response; type: biochemical; conditions: for DNA Pol: 90 min, 10 µM;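 for % inhibition Apol 40': compound concentration given in µM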
Summary of the method: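 Single-point screening used 10 µM compound with 20 nM polymerase, 20 nM hairpin substrate and 6 µM dNTPs for 90 min at 25 °C. Confirmatory titrations (2.5–80 µM) followed fluorescence at three times, and IC50 was derived from a fit including a cooperativity term n.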

[2] = molecular target: T1, P. berghei apicoplast DNA polymerase (Pb-apPOL) (Plasmodium berghei, UniProt A0A509ALK1); test: In vitro DNA polymerase inhibition assay, Pb-apPOL; type: biochemical; conditions: Table 2
T1 sequence (A0A509ALK1 1182-1809): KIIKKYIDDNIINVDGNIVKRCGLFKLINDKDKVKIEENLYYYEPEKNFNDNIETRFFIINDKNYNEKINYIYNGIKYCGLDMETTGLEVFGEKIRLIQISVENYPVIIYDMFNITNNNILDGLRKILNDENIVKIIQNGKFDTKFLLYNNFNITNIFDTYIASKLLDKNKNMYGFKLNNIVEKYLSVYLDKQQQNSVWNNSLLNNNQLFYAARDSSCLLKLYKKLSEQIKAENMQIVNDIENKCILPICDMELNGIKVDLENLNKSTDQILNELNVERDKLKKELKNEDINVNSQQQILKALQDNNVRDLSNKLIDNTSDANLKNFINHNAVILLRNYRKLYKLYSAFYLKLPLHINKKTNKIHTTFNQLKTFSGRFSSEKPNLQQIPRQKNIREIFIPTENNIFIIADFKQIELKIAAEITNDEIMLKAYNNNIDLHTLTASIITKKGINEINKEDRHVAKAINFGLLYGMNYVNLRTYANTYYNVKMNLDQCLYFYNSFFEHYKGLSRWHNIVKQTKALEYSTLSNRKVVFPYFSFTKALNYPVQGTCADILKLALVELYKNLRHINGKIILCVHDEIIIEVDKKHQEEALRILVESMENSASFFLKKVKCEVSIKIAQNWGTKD
Protocol: (§1) Codon-optimized, exonuclease-deficient Pf-apPOL was overexpressed in E. coli BL21 (DE3) and purified as described. The protein was dialysed against two, 1-liter changes of 20 mM Tris-HCl (pH 8.0), 400 mM NaCl, and 20% glycerol. Plasmodium bergei and Babesia bovis apPOLs (Pb-apPOL and Bb-apPOL, respectively) were codon-optimized, expressed, and purified as for Pf-apPOL[15]. Bacteriophage T4 DNA polymerase was purified as described. The DNA oligonucleotides used to make the high-throughput substrate were obtained from Integrated DNA Technologies. Deoxynucleotides were purchased from Strategene. All other materials came from Fisher Scientific.
The HT assay employs a molecular beacon, a stem-loop DNA template with a Cy3 dye and the Black Hole Quencher on the 3′ and 5′ ends of the DNA, respectively. Pf-apPOL concentration is based on a calculated absorptivity of ε280 = 56750 M^−1 cm^−1. Reactions were carried out at 25 °C, using Corning 3575 […] (well-volume, 20 µL). Assays testing for compound inhibition composed of reaction buffer (pH 7.9 in 50 mM potassium acetate, 20 mM Tris-acetate and 10 mM magnesium acetate), Pf-apPOL (20 nM), DNA substrate (20 nM), dNTPs (6 µM), and compound (10 µM in DMSO). The DNA and nucleotide substrates (dNTPs) were at concentrations of 20 nM and 6 µM, respectively, in the assay. Pf-apPOL was incubated in the reaction buffer with dNTPs and the compound of interest (10 µM, in the assay) at 25 °C for 10 min. The DNA substrate was then added and the reaction was allowed to proceed for 90 min at 25 °C.
In the above, Min is the average of fluorescence emission of the negative controls (substrate only), Max the average fluorescence emission from the positive controls (enzyme + substrate), and Test the emission from the assays in the presence of compounds (enzyme + compound + substrates). Dose-response confirmation assays were performed under similar conditions as the primary screen, but monitoring fluorescence at 10, 90, and 180 min. Tested concentrations of compounds were 2.5, 10, 20, 40, and 80 µM. The IC50 of each compound was determined using Equation (2): (2) […] Vmax/(1+ (I/IC50)^n)
We tested the ability of the 102 compounds to kill P. falciparum parasites cultured in human red blood cells. Due to the number of compounds, we used a single inhibitor concentration of 20 µM and performed experiments in triplicate. These single-dose assays identified 9 compounds that inhibited parasite growth by more than 50%. These compounds were then tested in a dose-response format against chloroquine resistant P. falciparum parasites (Dd2) and the resulting data were fit to a sigmoidal growth inhibition curve to determine EC50 values (Figure 5, Table 2). […] Inhibition of Pb-apPOL is a desired feature because it is likely that future in vivo studies will be performed in the mouse model for Malaria. […] The in vitro polymerase assays identified 5 compounds that were potent inhibitors of all three apicoplast polymerases and a single compound that inhibited Pf-apPOL and Bb-apPOL but not Pb-apPOL (Table 2). Finally, to determine if the compounds were killing the parasites solely via apicoplast disruption, the dose-response curves were also performed with 1 mM isopentylpyrophosphate (IPP) in the growth media (Table 2). […] At this time, it is unclear what the non-apicoplast target(s) may be. One intriguing possibility is that these compounds may be targeting both the apicoplast and the mitochondrial DNA polymerases. […]

[3] = system: chloroquine resistant P. falciparum parasites (strain Dd2); test: Parasite growth inhibition assay in human red blood cells (flow cytometry, acridine orange); type: cell-based; conditions: Plasmodium falciparum, Erythrocyte
Protocol: The chloroquine resistant P. falciparum parasites (strain Dd2) were cultured in de-identified, IRB-exempt human red blood cells (RBCs) obtained from the American Red Cross and parasite cultures were maintained as described. Parasitaemia (percentage of total RBCs infected) was measured by flow cytometry on an Attune NxT (ThermoFisher) by nucleic-acid staining of cultured RBCs with phosphate-buffered saline (PBS) containing 0.8 µg ml^−1 acridine orange. We began by determining percent growth inhibition at single compound dose (20 µM) for the 102 non-toxic compounds. […] The experiments were initiated with a starting parasitaemia of ∼1% and parasitaemia was measured 72 and 96 h post compound addition. Growth was normalised to parasite cultures with carrier only (DMSO).
(§2) We tested the ability of the 102 compounds to kill P. falciparum parasites cultured in human red blood cells. Due to the number of compounds, we used a single inhibitor concentration of 20 µM and performed experiments in triplicate. […] These compounds were then tested in a dose-response format against chloroquine resistant P. falciparum parasites (Dd2) and the resulting data were fit to a sigmoidal growth inhibition curve to determine EC50 values (Figure 5, Table 2). […] Finally, to determine if the compounds were killing the parasites solely via apicoplast disruption, the dose-response curves were also performed with 1 mM isopentylpyrophosphate (IPP) in the growth media (Table 2). […] Very little is known regarding mitochondrial DNA replication in P. falciparum; however, signal sequence identification algorithms have predicted that the other bacterial A-family DNA polymerase residing in P. falciparum is targeted to the mitochondria (PF3D7_0625300)[29]. […] We are currently in the process of cloning and expressing this putative mitochondrial DNA polymerase to determine the effect of these compounds on its activity.

[4] = molecular target: Babesia bovis apicoplast DNA polymerase (Bb-apPOL); test: In vitro DNA polymerase inhibition assay, Bb-apPOL; type: biochemical; conditions: Table 2
Protocol: as §1, §2

[5] = read-out: IC50 Pf-apPOL, Table 2
[6] = supplemental file 2, sheet IC50 nontoxic compounds, Pf-apPOL
[7] = Dd2 parasites in human RBCs, dose-response, no IPP, read-out: EC50
[8] = Dd2 parasites, 1 mM isopentylpyrophosphate (IPP) in the growth media, read-out: EC50 + IPP

P. falciparum apicoplast DNA polymerase (Pf-apPOL), sequence (Q8ILY1 entry or part of it): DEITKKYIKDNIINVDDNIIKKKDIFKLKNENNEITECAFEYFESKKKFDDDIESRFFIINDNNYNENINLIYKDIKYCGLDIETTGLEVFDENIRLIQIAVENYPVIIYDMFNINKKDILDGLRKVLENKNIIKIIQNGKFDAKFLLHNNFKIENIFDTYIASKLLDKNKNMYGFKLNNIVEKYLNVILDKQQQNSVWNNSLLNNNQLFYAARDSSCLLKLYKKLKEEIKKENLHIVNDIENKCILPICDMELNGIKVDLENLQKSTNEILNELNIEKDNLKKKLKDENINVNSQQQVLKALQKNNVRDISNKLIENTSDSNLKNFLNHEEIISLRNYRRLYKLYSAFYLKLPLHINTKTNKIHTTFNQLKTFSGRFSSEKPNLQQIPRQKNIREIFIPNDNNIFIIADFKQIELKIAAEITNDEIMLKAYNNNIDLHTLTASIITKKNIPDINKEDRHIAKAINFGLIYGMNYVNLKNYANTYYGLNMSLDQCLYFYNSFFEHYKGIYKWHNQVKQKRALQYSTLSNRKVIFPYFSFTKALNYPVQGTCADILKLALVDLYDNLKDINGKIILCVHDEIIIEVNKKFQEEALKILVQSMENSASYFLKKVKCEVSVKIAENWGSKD

## O=[N+]([O-])c1ccc(/C=C/c2ccc3ccccc3n2)o1 [Molecule 21]
[1]; [5]
  IC50: 8 ± 1 µM
[1]; [6]
  IC50: 8.41 µM
[2]
  IC50: 9.7 ± 1.6 µM

## O=C1Nc2ccc(I)cc2C1=Cc1cc(Br)c(O)c(Br)c1 [Molecule 27]
[1]; [5]
  IC50: 15 ± 1 µM
[1]; [6]
  IC50: 15.6 µM
[3]; [7]
  EC50: 10 ± 1 µM
[3]; [8]
  EC50: 9 ± 1 µM

## O=[N+]([O-])/C=C/c1ccc(-c2ccc(Br)cc2)o1 [Molecule 31]
[1]; [5]
  IC50: 15 ± 1 µM
[1]; [6]
  IC50: 15.8 µM
[4]
  IC50: 15 ± 5 µM
[3]; [7]
  EC50: 8.9 ± 0.5 µM
[3]; [8]
  EC50: 8.7 ± 0.6 µM

## Cn1nc(-c2nnc(-c3ccccc3F)o2)c2c1CCN(C(=O)c1ccccc1Cl)C2 [Molecule 34]
[1]; [5]
  IC50: 7.2 ± 0.9 µM
[1]; [6]
  IC50: 7.21 µM
[3]; [7]
  EC50: 11.3 ± 0.9 µM
[3]; [8]
  EC50: 10 ± 0.7 µM

## CC(C)(C)c1cc(C(=O)C(C#N)=NNc2cccc(Cl)c2)no1 [Molecule 98]
[1]; [5]
  IC50: 8 ± 2 µM
[1]; [6]
  IC50: 8.45 µM
[3]; [7]
  EC50: 16 ± 1 µM
[3]; [8]
  EC50: 11 ± 1 µM

## Cc1cc(C)c2c(c1)C1C=CCC1C(c1ccc(C(=O)O)cc1)N2 (stereo not shown) [Molecule 102, Cc1cc(C)c2c(c1)C1C=CCC1C(N2)c1ccc(cc1)C(=O)O]
[1]; 'DNA Pol' of the 186 hits list (screen value)
  DNA Pol: 60
[1]; DRC-1, conc 2.5
  % inhibition Apo pol 10': 46.2676%
  % inhibition Apol 90': 14.3309%
  % inhibition apPOL 180': 1.778%
[1]; DRC-1, conc 5
  % inhibition Apo pol 10': 62.6778%
  % inhibition Apol 90': 28.3959%
  % inhibition apPOL 180': 12.6672%
[1]; DRC-1, conc 10
  % inhibition Apo pol 10': 76.4739%
  % inhibition Apol 90': 47.4171%
  % inhibition apPOL 180': 32.4501%
[1]; DRC-1, conc 20
  % inhibition Apo pol 10': 82.8067%
  % inhibition Apol 90': 62.2374%
  % inhibition apPOL 180': 53.0918%
[1]; DRC-1, conc 40
  % inhibition Apo pol 10': 91.6956%
  % inhibition Apol 90': 86.2676%
  % inhibition apPOL 180': 83.5057%
[1]; DRC-1, conc 80
  % inhibition Apo pol 10': 93.5405%
  % inhibition Apol 90': 94.9161%
  % inhibition apPOL 180': 95.0431%
[1]; DRC-2, conc 2.5
  % inhibition Apo pol 5': 40%
  % inhibition Apol 40': 34%
  % inhibition ApPOL 90': 28%
  % inhibition apPOL 180': 19%
[1]; DRC-2, conc 5
  % inhibition Apo pol 5': 51%
  % inhibition Apol 40': 50%
  % inhibition ApPOL 90': 47%
  % inhibition apPOL 180': 40%
[1]; DRC-2, conc 10
  % inhibition Apo pol 5': 55%
  % inhibition Apol 40': 59%
  % inhibition ApPOL 90': 58%
  % inhibition apPOL 180': 54%
[1]; DRC-2, conc 20
  % inhibition Apo pol 5': 58%
  % inhibition Apol 40': 71%
  % inhibition ApPOL 90': 73%
  % inhibition apPOL 180': 75%
[1]; DRC-2, conc 40
  % inhibition Apo pol 5': 59%
  % inhibition Apol 40': 76%
  % inhibition ApPOL 90': 80%
  % inhibition apPOL 180': 83%
[1]; DRC-2, conc 80
  % inhibition Apo pol 5': 58%
  % inhibition Apol 40': 75%
  % inhibition ApPOL 90': 79%
  % inhibition apPOL 180': 83%
[1]; DRC-2, concentration 2.5
  % inhibition Apo pol 5': 40%
[1]; DRC-2, concentration 20
  % inhibition Apo pol 5': 58%
  % inhibition apPOL 180': 75%
[1]; DRC-2, concentration 40
  % inhibition Apo pol 5': 59%
  % inhibition apPOL 180': 83%
[1]; DRC-2, concentration 80
  % inhibition Apo pol 5': 58%
  % inhibition Apol 40': 75%
  % inhibition apPOL 180': 83%
[1]; DRC-2, concentration 10
  % inhibition Apol 40': 59%
  % inhibition ApPOL 90': 58%
[1]; DRC-2, concentration 5
  % inhibition apPOL 180': 40%
[1]; primary screen value, "DNA Pol"
  DNA Pol: 60

## Cc1cc(C)c2c(c1)C1C=CCC1C(c1ccc(C(=O)O)cc1)N2 (stereo not shown) [Molecule 102]
[1]; [6]
  IC50: 2.89 µM
